Test system: primary cultured cerebral neurons
Test: Aβ accumulation (6E10) and LC3 double staining
Type: cell-based, rat
Conditions: Aβ 0.5 or 1 μM, HN-1703 0.1 or 0.5 μM, 12 or 24 hours, FIG. 4
Description: Primary neurons culture was performed from the cerebral cortex of E16 embryos on embryonic day 16 of […] (SD, Orient Bio). Primary neurons culture (cortical neurons culture) was performed from the cerebral cortex of rat (SD, Orient Bio) embryonic 16-day (E16) embryos. The left and right hemispheres of the extracted brain were separated using sterile tweezers under a dissecting microscope, the meninges were peeled off, and then the cerebral cortex region was cut with No. 5 tweezers and collected in a Ca^2+/Mg^2+-free HBSS (Invitrogen), and mixed with an equal amount of 0.25% trypsin in a 15 ml tube and treated in a 37° C. water bath for 10 to 15 minutes. Thereafter, trypsin was inactivated by removing a portion of trypsin, leaving 1 to 2 ml of trypsin, and then adding the same amount of 20% FBS-DMEM. […]
As confirmed in Experimental Example 2 that HN-1703 may effectively promote autophagy, it was evaluated whether HN-1703 may remove Aβ oligomers accumulated in cells. In the rat embryonic (E16) cerebral cortex region, primary cultured cerebral neurons were treated with […] or 1 μM Aβ and 0.1 μM or 0.5 μM HN-1703 for 12 or 24 hours, and accumulated Aβ was stained with a 6E10 antibody and autophagy formation was simultaneously double-stained with an LC3 antibody and measured, and cell nuclei were labeled with DAPI. […]

## COc1cc(OC)c2c(=O)c3cc4c(cc3oc2c1)OCO4 [HN-1703, 7,9-dimethoxy-10H-[1,3]dioxolo[4,5-b]xanthen-10-one]
  Aβ accumulated in cells removed: ≥ 50%
concentration-dependent
  increase of the area of LC3 puncta: ≥ 4 times
